Assay results taken from patent publication US12559506B2, “Indazole based compounds and associated methods of use” (Arvinas Operations, Inc., priority 2021, dated 2026).
Like-named read-outs stand apart in the source and are kept apart here.

Target: T1, LRRK2 (endogenous, HiBit tagged) (Homo sapiens, UniProt Q5S007)
T1 construct: endogenous in cells; host or cells: HEK293 cells with HiBit knock-in at the endogenous LRRK2 locus, stably expressing firefly luciferase
Test: Endogenous LRRK2 degradation assay, endogenous gene C-terminally HiBit-tagged in HEK293 cells (Nano-Glo Dual Luciferase)
Assay type: cell-based
Conditions: endogenous HiBit-tagged LRRK2 in HEK293 cells, 24 hours treatment
Procedure, shortened: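 LRRK2-HiBit quantified via Nano-Glo Dual Luciferase in HEK293 knock-in cells co-expressing firefly luciferase, after 24 h exposure to compound (1 μM final top, 1:3, 11 points). Values normalised to DMSO median per plate and curve-fitted; Alamar Blue viability run alongside.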

[1] = read-out: **Endogenous WT Dmax (%)

T1 sequence (Q5S007 whole entry): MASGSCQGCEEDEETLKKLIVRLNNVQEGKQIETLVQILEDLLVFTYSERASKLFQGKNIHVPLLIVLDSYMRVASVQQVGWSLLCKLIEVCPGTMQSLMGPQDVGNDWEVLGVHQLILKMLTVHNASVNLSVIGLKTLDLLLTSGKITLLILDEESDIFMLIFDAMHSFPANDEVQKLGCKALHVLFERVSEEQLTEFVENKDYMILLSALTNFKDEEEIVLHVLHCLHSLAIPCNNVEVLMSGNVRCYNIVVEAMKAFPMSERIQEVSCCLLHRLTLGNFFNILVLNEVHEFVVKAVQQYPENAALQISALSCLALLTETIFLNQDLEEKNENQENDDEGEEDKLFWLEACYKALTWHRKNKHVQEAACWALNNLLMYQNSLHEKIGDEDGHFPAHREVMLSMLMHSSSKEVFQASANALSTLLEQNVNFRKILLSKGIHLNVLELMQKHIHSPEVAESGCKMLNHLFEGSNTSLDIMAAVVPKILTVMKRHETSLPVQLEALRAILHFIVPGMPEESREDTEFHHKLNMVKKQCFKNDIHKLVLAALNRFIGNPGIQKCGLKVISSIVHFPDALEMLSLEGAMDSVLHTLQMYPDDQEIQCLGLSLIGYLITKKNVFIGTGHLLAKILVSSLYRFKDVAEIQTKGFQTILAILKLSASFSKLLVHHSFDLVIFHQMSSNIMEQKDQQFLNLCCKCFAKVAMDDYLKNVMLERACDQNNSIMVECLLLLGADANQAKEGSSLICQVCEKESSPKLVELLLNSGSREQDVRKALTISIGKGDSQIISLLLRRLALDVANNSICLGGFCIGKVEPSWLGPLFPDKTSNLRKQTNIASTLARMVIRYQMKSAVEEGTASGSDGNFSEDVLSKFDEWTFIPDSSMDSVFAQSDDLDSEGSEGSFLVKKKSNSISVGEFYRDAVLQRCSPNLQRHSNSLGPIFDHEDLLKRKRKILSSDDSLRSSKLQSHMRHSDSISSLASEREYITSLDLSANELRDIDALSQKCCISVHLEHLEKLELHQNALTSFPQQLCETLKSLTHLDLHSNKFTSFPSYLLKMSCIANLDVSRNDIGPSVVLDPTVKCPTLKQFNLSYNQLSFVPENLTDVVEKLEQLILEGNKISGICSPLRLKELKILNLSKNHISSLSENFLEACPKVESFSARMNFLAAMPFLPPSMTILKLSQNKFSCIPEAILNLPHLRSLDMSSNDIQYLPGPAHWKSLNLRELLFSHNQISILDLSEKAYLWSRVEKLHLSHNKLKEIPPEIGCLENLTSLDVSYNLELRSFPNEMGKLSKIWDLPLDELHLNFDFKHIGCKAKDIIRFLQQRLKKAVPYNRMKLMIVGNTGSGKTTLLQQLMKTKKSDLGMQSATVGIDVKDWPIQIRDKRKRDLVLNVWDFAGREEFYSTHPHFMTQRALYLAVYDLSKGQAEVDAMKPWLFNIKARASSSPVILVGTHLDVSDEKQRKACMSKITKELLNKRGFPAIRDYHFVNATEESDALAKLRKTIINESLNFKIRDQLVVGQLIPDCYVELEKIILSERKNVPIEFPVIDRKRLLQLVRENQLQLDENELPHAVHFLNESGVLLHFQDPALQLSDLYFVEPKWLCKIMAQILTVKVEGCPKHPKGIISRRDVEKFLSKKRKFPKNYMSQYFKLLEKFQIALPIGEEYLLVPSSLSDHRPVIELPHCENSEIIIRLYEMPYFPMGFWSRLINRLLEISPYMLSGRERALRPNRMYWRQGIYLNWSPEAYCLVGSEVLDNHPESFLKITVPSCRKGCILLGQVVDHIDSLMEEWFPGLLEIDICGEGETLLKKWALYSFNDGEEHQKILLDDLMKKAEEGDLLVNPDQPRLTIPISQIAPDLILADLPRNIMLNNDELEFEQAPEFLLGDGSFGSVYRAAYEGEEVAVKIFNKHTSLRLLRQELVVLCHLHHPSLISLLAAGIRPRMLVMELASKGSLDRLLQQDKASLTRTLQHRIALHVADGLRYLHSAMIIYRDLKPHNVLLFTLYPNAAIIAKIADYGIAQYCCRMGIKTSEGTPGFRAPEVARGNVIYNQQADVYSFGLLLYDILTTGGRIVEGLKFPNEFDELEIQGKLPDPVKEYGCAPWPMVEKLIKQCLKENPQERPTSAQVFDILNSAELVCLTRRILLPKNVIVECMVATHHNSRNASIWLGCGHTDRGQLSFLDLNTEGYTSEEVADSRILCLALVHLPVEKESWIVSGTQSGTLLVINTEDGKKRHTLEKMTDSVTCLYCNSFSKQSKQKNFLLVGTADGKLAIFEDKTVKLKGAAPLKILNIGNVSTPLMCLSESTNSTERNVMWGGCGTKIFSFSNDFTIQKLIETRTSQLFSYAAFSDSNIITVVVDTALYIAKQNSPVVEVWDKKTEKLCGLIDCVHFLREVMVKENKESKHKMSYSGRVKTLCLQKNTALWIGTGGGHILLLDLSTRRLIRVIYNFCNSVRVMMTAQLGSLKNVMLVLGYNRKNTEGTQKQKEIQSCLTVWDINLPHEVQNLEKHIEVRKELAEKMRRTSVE

SMILES	DC50 (read-out: Endogenous WT DC50) [nM]	Dmax (read-out: Endogenous WT Dmax) [%]	Dmax [1] [%]	DC50 (read-out: *Endogenous WT DC50) [nM]
CC1(Oc2ccc3[nH]nc(-c4cc(N5CCC(CN6CCN(CC7CCN(c8ccc9c(c8)C(=O)N(C8CCC(=O)NC8=O)C9)CC7)CC6)CC5)ncn4)c3c2)CC1 (stereo not shown) [Compound 241, 3-[6-[4-[[4-[[1-[6-[5-(1-methylcyclopropoxy)-1H-indazol-3-yl]pyrimidin-4-yl]-4-piperidyl]methyl]piperazin-1-yl]methyl]-1-piperidyl]-1-oxo-isoindolin-2-yl]piperidine-2,6-dione]	< 10	50 to 70		
CC1(Oc2ccc3[nH]nc(-c4cc(N5CCC(CN6CCC(F)(CC7CCN(c8c(F)cc9c(c8F)CN(C8CCC(=O)NC8=O)C9=O)CC7)CC6)CC5)ncn4)c3c2)CC1 (stereo not shown) [Compound 242, 3-{4,6-difluoro-5-[4-({4-fluoro-1-[(1-{6-[5-(1-methylcyclopropoxy)-1H-indazol-3-yl]pyrimidin-4-yl}piperidin-4-yl)methyl]piperidin-4-yl}methyl)piperidin-1-yl]-1-oxo-2,3-dihydro-1H-isoindol-2-yl}piperidine-2,6-dione]	< 10	50 to 70		
CC1(Oc2ccc3[nH]nc(-c4cc(N5CCN(C[C@H]6CC[C@H](OC7CCN(c8ccc9c(c8Cl)CN(C8CCC(=O)NC8=O)C9=O)CC7)CC6)CC5)ncn4)c3c2)CC1 (stereo partly shown) [Compound 243, 3-[4-chloro-1-oxo-5-(4-{[(1r,4r)-4-[(4-{6-[5-(1-methylcyclopropoxy)-1H-indazol-3-yl]pyrimidin-4-yl}piperazin-1-yl)methyl]cyclohexyl]oxy}piperidin-1-yl)-2,3-dihydro-1H-isoindol-2-yl]piperidine-2,6-dione]	< 10	50 to 70		
CC1(Oc2ccc3n[nH]c(-c4cc(N5CCC(O[C@H]6CC[C@H](OC7CCN(c8cc9c(cc8F)C(=O)N(C8CCC(=O)NC8=O)C9)CC7)CC6)CC5)ncn4)c3c2)CC1 (stereo partly shown) [Compound 244, 3-[6-fluoro-1-oxo-5-(4-{[(1r,4r)-4-[(1-{6-[5-(1-methylcyclopropoxy)-2H-indazol-3-yl]pyrimidin-4-yl}piperidin-4-yl)oxy]cyclohexyl]oxy}piperidin-1-yl)-2,3-dihydro-1H-isoindol-2-yl]piperidine-2,6-dione]	< 10	50 to 70		
COc1c(N2CCN(CC3(F)CCN(CC4CCN(c5cc(-c6[nH]nc7ccc(OC8(C)CC8)cc67)ncn5)CC4)CC3)CC2)ccc2c1CN(C1CCC(=O)NC1=O)C2=O (stereo not shown) [Compound 246, 3-{5-[4-({4-fluoro-1-[(1-{6-[5-(1-methylcyclopropoxy)-2H-indazol-3-yl]pyrimidin-4-yl}piperidin-4-yl)methyl]piperidin-4-yl}methyl)piperazin-1-yl]-4-methoxy-1-oxo-2,3-dihydro-1H-isoindol-2-yl}piperidine-2,6-dione]	< 10	50 to 70		
COc1c(N2CCC(O[C@H]3CC[C@H](OC4CCN(c5cc(-c6n[nH]c7ccc(OC8(C)CC8)cc67)ncn5)CC4)CC3)CC2)ccc2c1CN(C1CCC(=O)NC1=O)C2=O (stereo partly shown) [Compound 248, 3-[4-methoxy-1-oxo-5-(4-{[(1r,4r)-4-[(1-{6-[5-(1-methylcyclopropoxy)-1H-indazol-3-yl]pyrimidin-4-yl}piperidin-4-yl)oxy]cyclohexyl]oxy}piperidin-1-yl)-2,3-dihydro-1H-isoindol-2-yl]piperidine-2,6-dione]	< 10	50 to 70		
CC1(Oc2ccc3[nH]nc(-c4cc(N5CCC(O[C@H]6CC[C@H](CN7CCN(c8ccc9c(c8Cl)CN(C8CCC(=O)NC8=O)C9=O)CC7)CC6)CC5)ncn4)c3c2)CC1 (stereo partly shown) [Compound 249, 3-[4-chloro-1-oxo-5-(4-{[(1r,4r)-4-[(1-{6-[5-(1-methylcyclopropoxy)-1H-indazol-3-yl]pyrimidin-4-yl}piperidin-4-yl)oxy]cyclohexyl]methyl}piperazin-1-yl)-2,3-dihydro-1H-isoindol-2-yl]piperidine-2,6-dione]	< 10	50 to 70		
COc1c(N2CCN(C[C@H]3CC[C@H](OC4CCN(c5cc(-c6[nH]nc7ccc(OC8(C)CC8)cc67)ncn5)CC4)CC3)CC2)ccc2c1CN(C1CCC(=O)NC1=O)C2=O (stereo partly shown) [Compound 252, 3-[4-methoxy-1-oxo-5-(4-{[(1r,4r)-4-[(1-{6-[5-(1-methylcyclopropoxy)-2H-indazol-3-yl]pyrimidin-4-yl}piperidin-4-yl)oxy]cyclohexyl]methyl}piperazin-1-yl)-2,3-dihydro-1H-isoindol-2-yl]piperidine-2,6-dione]	< 10	50 to 70		
CC1(Oc2cc3c(-c4cc(N5CCC(O[C@H]6CC[C@H](CN7CCN(c8ccc9c(c8F)CN(C8CCC(=O)NC8=O)C9=O)CC7)CC6)CC5)ncn4)n[nH]c3cn2)CC1 (stereo partly shown) [Compound 254, 3-[4-fluoro-1-oxo-5-(4-{[(1r,4r)-4-[(1-{6-[5-(1-methylcyclopropoxy)-1H-pyrazolo[3,4-c]pyridin-3-yl]pyrimidin-4-yl}piperidin-4-yl)oxy]cyclohexyl]methyl}piperazin-1-yl)-2,3-dihydro-1H-isoindol-2-yl]piperidine-2,6-dione]	< 10	50 to 70		
CC1(Oc2cc3c(-c4cc(N5CCN(C[C@H]6CC[C@H](OC7CCN(c8ccc9c(c8F)CN(C8CCC(=O)NC8=O)C9=O)CC7)CC6)CC5)ncn4)n[nH]c3cn2)CC1 (stereo partly shown) [Compound 258, 3-[4-fluoro-1-oxo-5-(4-{[(1r,4r)-4-[(4-{6-[5-(1-methylcyclopropoxy)-1H-pyrazolo[3,4-c]pyridin-3-yl]pyrimidin-4-yl}piperazin-1-yl)methyl]cyclohexyl]oxy}piperidin-1-yl)-2,3-dihydro-1H-isoindol-2-yl]piperidine-2,6-dione]			50 to 70	< 10

Now from value to compound:

DC50 (read-out: Endogenous WT DC50) [nM]	Dmax (read-out: Endogenous WT Dmax) [%]	Dmax [1] [%]	DC50 (read-out: *Endogenous WT DC50) [nM]	SMILES
< 10	50 to 70			CC1(Oc2cc3c(-c4cc(N5CCC(CN6CCN(CC7CCN(c8ccc9c(c8F)CN(C8CCC(=O)NC8=O)C9=O)CC7)CC6(C)C)CC5)ncn4)n[nH]c3cn2)CC1 (stereo not shown) [Compound 247, 3-{5-[4-({3,3-dimethyl-4-[(1-{6-[5-(1-methylcyclopropoxy)-1H-pyrazolo[3,4-c]pyridin-3-yl]pyrimidin-4-yl}piperidin-4-yl)methyl]piperazin-1-yl}methyl)piperidin-1-yl]-4-fluoro-1-oxo-2,3-dihydro-1H-isoindol-2-yl}piperidine-2,6-dione]
< 10	50 to 70			COc1c(N2CCC(CN3CCN(CC4CCN(c5cc(-c6n[nH]c7cnc(OC8(C)CC8)cc67)ncn5)CC4)C(C)(C)C3)CC2)ccc2c1CN(C1CCC(=O)NC1=O)C2=O (stereo not shown) [Compound 250, 3-{5-[4-({3,3-dimethyl-4-[(1-{6-[5-(1-methylcyclopropoxy)-1H-pyrazolo[3,4-c]pyridin-3-yl]pyrimidin-4-yl}piperidin-4-yl)methyl]piperazin-1-yl}methyl)piperidin-1-yl]-4-methoxy-1-oxo-2,3-dihydro-1H-isoindol-2-yl}piperidine-2,6-dione]
< 10	50 to 70			COc1c(N2CCC(CN3CCN(CC4CCN(c5cc(-c6n[nH]c7ccc(OC8(C)CC8)cc67)ncn5)CC4)C(C)(C)C3)CC2)ccc2c1CN(C1CCC(=O)NC1=O)C2=O (stereo not shown) [Compound 251, 3-{5-[4-({3,3-dimethyl-4-[(1-{6-[5-(1-methylcyclopropoxy)-1H-indazol-3-yl]pyrimidin-4-yl}piperidin-4-yl)methyl]piperazin-1-yl}methyl)piperidin-1-yl]-4-methoxy-1-oxo-2,3-dihydro-1H-isoindol-2-yl}piperidine-2,6-dione]
< 10	50 to 70			COc1c(N2CCC(CN3CCN(CC4CCN(c5cc(-c6n[nH]c7cnc(OC8(C)CC8)cc67)ncn5)CC4)CC3)CC2)ccc2c1CN(C1CCC(=O)NC1=O)C2=O (stereo not shown) [Compound 253, 3-{4-methoxy-5-[4-({4-[(1-{6-[5-(1-methylcyclopropoxy)-1H-pyrazolo[3,4-c]pyridin-3-yl]pyrimidin-4-yl}piperidin-4-yl)methyl]piperazin-1-yl}methyl)piperidin-1-yl]-1-oxo-2,3-dihydro-1H-isoindol-2-yl}piperidine-2,6-dione]
< 10	50 to 70			COc1c(N2CCC(CN3CCN(CC4CCN(c5cc(-c6n[nH]c7ccc(OC8(C)CC8)cc67)ncn5)CC4)[C@H](C)C3)CC2)ccc2c1CN(C1CCC(=O)NC1=O)C2=O (stereo partly drawn) [Compound 255, 3-[4-methoxy-5-(4-{[(3R)-3-methyl-4-[(1-{6-[5-(1-methylcyclopropoxy)-1H-indazol-3-yl]pyrimidin-4-yl}piperidin-4-yl)methyl]piperazin-1-yl]methyl}piperidin-1-yl)-1-oxo-2,3-dihydro-1H-isoindol-2-yl]piperidine-2,6-dione]
< 10	50 to 70			COc1c(N2CCC(CN3CCN(CC4CCN(c5cc(-c6n[nH]c7ccc(OC8(C)CC8)cc67)ncn5)CC4)[C@@H](C)C3)CC2)ccc2c1CN(C1CCC(=O)NC1=O)C2=O (stereo partly drawn) [Compound 256, 3-[4-methoxy-5-(4-{[(3S)-3-methyl-4-[(1-{6-[5-(1-methylcyclopropoxy)-1H-indazol-3-yl]pyrimidin-4-yl}piperidin-4-yl)methyl]piperazin-1-yl]methyl}piperidin-1-yl)-1-oxo-2,3-dihydro-1H-isoindol-2-yl]piperidine-2,6-dione]
		50 to 70	< 10	COc1c(N2CCC(CN3CCN(CC4CCN(c5cc(-c6n[nH]c7cnc(OC8(C)CC8)cc67)ncn5)CC4)[C@H](C)C3)CC2)ccc2c1CN(C1CCC(=O)NC1=O)C2=O (stereo partly drawn) [Compound 257, 3-[4-methoxy-5-(4-{[(3R)-3-methyl-4-[(1-{6-[5-(1-methylcyclopropoxy)-1H-pyrazolo[3,4-c]pyridin-3-yl]pyrimidin-4-yl}piperidin-4-yl)methyl]piperazin-1-yl]methyl}piperidin-1-yl)-1-oxo-2,3-dihydro-1H-isoindol-2-yl]piperidine-2,6-dione]
